Source: patent US11291642B2, “Dimethyl fumarate particles and pharmaceutical compositions thereof” (BIOGEN MA INC., priority 2015, dated 2022)
Structures can show the parent of a compound that is named as a salt.

Tests used:
Assay type in all cases: physicochemical
[1] = Particle size of dimethyl fumarate by Malvern laser diffraction; settings: for Span: Span=(D90−D10)/D50; for Span / D × 10 (μm) / D × 50 (μm) / D × 90 (μm) / D × 97 (μm) / ≤10 μm: Table 1; for ≤10 μm: fraction of particles ≤10 μm; for d10 / d50 / d90: 350 kg batch, laser diffraction, Table 3
Method: As use herein, the particle size is expressed in terms of volume diameter and the particle size distribution is expressed in terms of D50, D10, D90 and span.
In certain embodiments, the particle size described herein are measured using a laser diffraction technique that correlates light scattering to particle volume on which effective length or effective diameter is calculated. The distribution is based on a measurement of thousands of particles. Particle samples can be in dry form or in slurry. In one embodiment, the instrument used to determine particle size/distribution is a Beckman Coulter LS230 or a Malvern Mastersizer.
As used herein, “D50”, also known as the median diameter, corresponds to the value under which 50% of the particles has a lower volume diameter. “D90” corresponds to the value under which 90% of the particles has a lower volume diameter. “D10” corresponds to the value under which 10% of the particles has a lower volume diameter.
As used herein, “span” is a measure for particle size distribution. It is calculated according to the following equation: Span=(D90−D10)/D50

[2] = FT4 Powder Rheometer dynamic testing (flow rate index, specific energy); settings: for Flow Rate Index: flow energy at 10 mm/s / 100 mm/s
Method: In certain embodiments, powder characterization described herein can be determined using the FT4 Powder Rheometer (Freeman Technology Ltd, Tewkesbury, UK) with the 25 mm vessel assembly having 23.5 mm diameter blades, vented piston, a segmented rotational shear cell accessory and a 10 or 25 ml borosilicate vessel. Powder testing can be generally divided into three categories: dynamic tests, permeability test and shear test. Dynamic testing uses the 23.5 mm diameter blades and a 25 ml powder sample in the borosiliate test vessel. Powder is filled into the vessel and the blades are simultaneously rotated and moved axially into the powder sample as the axial and rotational forces are measure and used to calculate the dynamic flowability parameters, such as flow rate index (FRI) and Specific Energy (SE). As used herein, the “flow rate index” (or FRI) is a measure of a powder's sensitivity to variable flow rate and is obtained as the ratio of the total energy required to induce powder flow at 10 mm/s and 100 mm/s blade tip speed. A larger deviation from 1 indicates greater sensitivity of a powder to variable flow rate. FRI=Flow Energy@10mm/s/Flow Energy@100mm/s As used herein, “specific energy” or SE is a measure of the powder flow in low stress environment and is derived from the shear forces acting on the blades as they rotate upward through the powder. The SE is recorded as the flow energy of the powder normalized by its weight in mJ/g during the upward spiral movement of the blades in a FT4 Powder Rheometer describe above. A lower SE is an indication of a less cohesive powder and better flow properties. DMF powder characterization was conducted using the FT4 Powder Rheometer (Freeman Technology Ltd, Tewkesbury, UK) using the 25 mm vessel assembly which consists of 23.5 mm diameter blades, vented piston, a segmented rotational shear cell accessory; and a 10 or 25 ml borosilicate vessel. All powders were pre-conditioned by the instrument's built-in conditioning step. Dynamic testing used the 23.5 mm diameter blades and a 25 ml powder sample in the borosilicate test vessel. Powder was filled into the vessel. The blades were simultaneously rotated and moved axially into the powder sample as the axial and rotational forces were measured and used to calculate the dynamic flowability parameters. Among dynamic parameters tested are Flow rate Index (FRI) and Specific Energy (SE). Their measurement techniques are described below: The FRI is a measure of a powder's sensitivity to variable flow rate and it is obtained as the ratio of the total energy required to induce powder flow at 10 mm/s and 100 mm/s blade tip speed. A larger deviation from 1 indicates greater sensitivity of a powder to variable flow rate. SE is a measure of the powder flow in low stress environment and is derived from the shear forces acting on the blades as they rotate upward through the powder. The SE is recorded as the flow energy of the powder normalized by its weight in […] during the upward spiral movement of the blades. A lower SE is an indication of a less cohesive powder and better flow properties.

[3] = FT4 Powder Rheometer shear test (flow function); settings: for Flow Function: FT4, Table 2, FF=MPS/UYS; for Flow Function (FF): 350 kg batch, FT4, Table 3
Method: Shear testing measures powder shear properties which involves the stress limit required to initiate a powder flow. The shear testing uses a segmented rotational shear cell head and a 10 ml powder sample in the borosilicate test vessel. Powder is filled into the vessel. The shear cell head is simultaneously rotated and moved axially under the powder sample at pre-determined normal stresses as the shear stresses are measured to calculate several parameters, including the flow function (FF). As used herein, “flow function” or FF is a parameter commonly used to rank powder's flowability and is determined using a shear test. The data produced in the shear test represents the relationship between shear stress and normal stress, which can be plotted to define the powder's Yield Locus, which is shown in FIG. 21. Fitting Mohr stress circles to the yield locus identifies the Major Principle Stress (MPS) and Unconfined Yield Strength (UYS). Flow function is the ratio of Major Principle Stress (MPS) to the Unconfined Yield Strength (UYS): FF=MPS/UYS. Usually, powders of low cohesion have higher FF and that represents better flow properties. Shear testing measures powder shear properties which involves the stress limit required to initiate a powder flow. The shear testing used a segmented rotational shear cell head and a 10 ml powder sample in the borosilicate test vessel. Powder was filled into the vessel. The shear cell head was simultaneously rotated and moved axially unto the powder sample at pre-determined normal stresses as the shear stresses were measured to calculate several parameters that include the flow function (FF) and powder cohesion (in kPa). Usually, powders of low cohesion have higher FF and that represents better flow properties.

[4] = Particle morphology by Malvern Morphologi G3; settings: compared to jet milled material
Method: As used herein, “aspect ratio” is the ratio of width divided by length of a particle. “Elongation” is defined as 1-aspect ratio. Shapes symmetrical in all axes, such as circles or squares, will tend to have an elongation close to 0, whereas needle-shaped particles will have values closer to 1. Elongation is more an indication of overall form than surface roughness. As used herein, “convexity” is a measurement of the surface roughness of a particle and is calculated by dividing the perimeter of an imaginary elastic band around the particle by the true perimeter of the particle. A smooth shape, regardless of form, has a convexity of 1 while a very ‘spiky’ or irregular object has a convexity closer to 0. As used herein, “circularity” or “high sensitivity circularity” is a measurement of the ratio of […]. A perfect circle has a circularity of 1 while a very narrow rod has a High Sensitivity (HS) Circularity close to 0. The higher the HS Circularity value the closer it is to a circle. Intuitively, circularity is a measure of irregularity or the difference from a perfect circle. […] The percentage of thicker particles can be determined using Malvern Instrument Morphologi G3. […] The intensity of light is quantified by the grey scale factor which depends on the amount of light reaching the detector. […]

[5] = Comparison of unmilled coarse DMF versus wet-milled DMF for enteric coating in fluid bed; settings: for Coated crystals: enterically coated particles made from the named API; for Flow of API particle in fluid bed: fluid bed coating process; for Particle morphology: uncoated API particles
Method: The enteric coated DMF is prepared using a Glatt GPCG-2 fluid bed granulator with a 6′ Wurster column. Dissolution was run with USP apparatus II by the Pharmaceutical Analytical Development Department with the following method.
DMF first de-lumped with a Frewitt Comill with screen size 1.0 mm. Then, it is mixed with silicon dioxide (Aerosil) and being fluidize in the fluid bed granulator for 5 minutes.
Eudragit L100 and triethyl citrate is used for coating an enteric layer for stomach acid protection on the DMF API particles. Samples were taken at different L100 weight gain to compare gastric protection capability.
Unmilled coarse DMF were coated according to the method of described in Example 5. Various properties of the unmilled coarse DMF and enterically coated DMF are compared with wet-milled DMF and enterically coated DMF made from wet-milled DMF.

[6] = Flow of drug product blend measured with Flodex; settings: blends of DMF with other excipients as in approved twice a day formulation; FIG. 1
Text: The y-axis indicates the aperture of cone containing the blend powder. Smaller aperture indicates better flow.

[7] = FT4, Table 2, no unit printed in table (mJ/g)
[8] = listed as wet-milled DMF particles

Span [1]	D × 10 (μm) [1] [μm]	D × 50 (μm) [1] [μm]	D × 90 (μm) [1] [μm]	D × 97 (μm) [1] [μm]	≤10 μm [1] [%]	Flow Rate Index ([2]; FT4, Table 2)	Specific Energy [2, 7]	Flow Function [3]	Compound	also measured
1.593	44.1	113	224	294	2.32	1.68	8.67	12.84	COC(=O)/C=C/C(=O)OC [Batch A14DS0978, dimethyl fumarate]	–
1.772	33.1	87.8	189	257	2.89	1.54	9.19	5.97	COC(=O)/C=C/C(=O)OC [Batch A14DS1097, dimethyl fumarate]	–
–	–	–	–	–	–	1.50	5.48	2.25	COC(=O)/C=C/C(=O)OC [Batch B1417-140304, dimethyl fumarate]	–

The next lines start with the compound.

Compound	Span [1]	D × 10 (μm) [1] [μm]	D × 50 (μm) [1] [μm]	D × 90 (μm) [1] [μm]	D × 97 (μm) [1] [μm]	≤10 μm [1] [%]	Flow Rate Index ([2]; FT4, Table 2)	Specific Energy [2, 7]	Flow Function [3]	also measured
COC(=O)/C=C/C(=O)OC [2014-4281-A.4, dimethyl fumarate]	1.562	31.9	96	182	235	2.61	1.11	4.87	5.84	–
COC(=O)/C=C/C(=O)OC [2014-4281-A.8, dimethyl fumarate]	1.71	27.2	70.8	148	208	3.87	1.37	6.64	3.29	–
COC(=O)/C=C/C(=O)OC [2014-4281-A.9, dimethyl fumarate]	1.58	26.8	88.2	166	210	3.02	1.33	6.42	2.50	–
COC(=O)/C=C/C(=O)OC [Batch 11P1310, dimethyl fumarate]	2.05	9	30	70	97	11.48	–	–	–	–
COC(=O)/C=C/C(=O)OC [Batch A14DS0977, dimethyl fumarate]	1.554	51.5	127	249	319	1.87	–	–	–	–
COC(=O)/C=C/C(=O)OC [Run 1, dimethyl fumarate]	–	–	–	–	–	–	–	–	–	d10 [1]: 35 μm; d50 [1]: 83 μm; d90 [1]: 156 μm; Flow rate Index (FRI) ([2]; 350 kg batch, FT4, Table 3): 1.61; Specific Energy ([2]; 350 kg batch, FT4, Table 3): 12.21 mJ/g; Flow Function (FF) [3]: 10.3
COC(=O)/C=C/C(=O)OC [Run 2, dimethyl fumarate]	–	–	–	–	–	–	–	–	–	d10 [1]: 39 μm; d50 [1]: 83 μm; d90 [1]: 150 μm; Flow rate Index (FRI) ([2]; 350 kg batch, FT4, Table 3): 1.39; Specific Energy ([2]; 350 kg batch, FT4, Table 3): 12.18 mJ/g; Flow Function (FF) [3]: 4.95
COC(=O)/C=C/C(=O)OC [Wet milled API, dimethyl fumarate]	–	–	–	–	–	–	–	–	–	Particle shape (aspect ratio, HS circularity, convexity) [4]: slightly less elongated, more circular and less edgy; Thick particles (percentage of particles with intensity <80) [4]: contained more thick particles; Coated crystals [5]: Isolated and small; Coated crystals [5, 8]: small coated particles with uniform size distribution; Flow of API particle in fluid bed [5]: uniform flow; Flow of API particle in fluid bed [5, 8]: desirable flowability; Particle morphology [5]: 3D structure; Particle morphology [5, 8]: three dimensional morphology; Particle size D50 ([5]; uncoated API, Table 8): D50 = 60-100 μm; Powder flow of drug product blend [6]: improvement in powder flow
